For series [1], the system named is Mammakarzinomzell-Linie MDA-MB 231. Description: In vitro toxicity (T/C in %) on breast carcinoma cell line. Format: cell-based, menschlichen. Conditions: MDA-MB 231, qualitative or ranking. The source says: Die Toxizität (T/C in %) weiterer erstmals dargestellter α-Diimin-Komplexe der Nickel-Triade unterschiedlicher Strukturtypen wurde in vitro an der menschlichen Mammakarzinomzell-Linie MDA-MB 231 getestet.

For series [2], the system named is hypoxischen CHO-ZeIlen. Description: Radiosensitisation of hypoxic CHO cells (enhancement ratio ER). In kind it is cell-based. To be noted: radiosensitising effect. An excerpt: Nickel-α-Diimin-Komplexe der Strukturtypen (α-Diimin)NiCl2 und [(α-Diimin)2Ni](ClO4)2 mit dem α-Diimin Antipy-PCD zeigen gegenüber isosteren Palladium- und Platin-Komplexen erhöhte radiosensibilisierende Wirkungen in hypoxischen CHO-ZeIlen; ER = 1,41 resp. 1,37. Für den unkoordinierten Antipy-PCD-Liganden, mit dem bekannten bioaktiven Molekülteil Phenazon, konnte nur ein sehr geringer strahlensensibilisierender Effekt (ER = 1,13) nachgewiesen werden. Die neutralen α-Diimin-Metall-Halogenid-Komplexe (a) der Nickel-Triade haben gegenüber analogen ionischen Perchlorat-Komplexen (b) eine deutlich höhere radiosensibilisierende Wirkung. Folgende Reihen entsprechender Komplexe - bezogen auf das Zentralmetall - mit abnehmenden o.g. sensibilisierenden Eigenschaften wurden ermittelt: für • (a) Ni > Pd > Pt • (b) Ni > Pt > Pd
Von den untersuchten neuen Platin-α-Diimin-Komplexen ist die fünffach koordinierte (Antipy-PCD)PtCl2(NH3)-Verbindung wegen ihres relativ hohen strahlensensibilisierenden Effektes (ER = 1,36) - verglichen mit ER-Literaturdaten für Platinkomplexe - bedeutsam. Eine entsprechende Sensibilisierung aerobischer CHO-ZeIlen durch die hier untersuchten Substanzen wurde in keinem Fall beobachtet.

Series [3] can be described thus: in vitro. To be noted: hamster, cho cells.

On to `COc1cc([N+](=O)[O-])ccc1N=Cc1ccccn1` [2-MeO-4-NO2-Ph-PCD], for which the “Toxizität (T/C in %)” value in series [1] is listed as “merkliche Toxizität”.
For orientation: viability means a read-out of living cells in per cent, often relative to untreated cells. Read a low viability as more harm to the cells. On to `Cc1c(N=Cc2ccccn2)c(=O)n(-c2ccccc2)n1C` [Antipy-PCD, 2-Pyridinal-2,3-dihydro-1,5-dimethyl-3-oxo-2-phenyl-1H-pyrazol-4-ylimin], for which the ER in series [2] was 1,13. The viability at 3 h, 300 µM in series [3] worked out at 36%.
For the molecule “Bis(2-pyridinal-2,3-dihydro-1,5-dimethyl-3-oxo-2-phenyl-1H- pyrazol-4-ylimin)-nickel(II)perchlorat [[(α-Diimin)2Ni](ClO4)2]”, the ER in series [2] is given as 1,37.
Still for that read-out and setting: for “Dichloro-2-pyridinal-(2,3-dihydro-1,5-dimethyl-3-oxo-2-phenyl-1H-pyrazol-4-ylimin)ammin-platin(II) [(Antipy-PCD)PtCl2(NH3)]” the value was 1,36.

Values taken from patent EP1537869A2, “Radiosensibilizer and preparation thereof” (Christian-Albrechts-Universität zu Kiel, priority 2003, dated 2005).
